# From patent US20170112861A1, “DRUG DELIVERY ENHANCER COMPRISING SUBSTANCE FOR ACTIVATING LYSOPHOSPHOLIPID RECEPTORS” (Osaka University, priority 2014, published 2017)
# What was measured:
# [1] = tested on: tumor blood vessels of LLC cell tumors; assay: Structural changes in tumor blood vessels after S1P administration (anti-CD31 immunostaining); assay type: in vivo; details: LLC tumor-bearing mice, S1P 0.3 mg/kg tail vein once daily for three days, 24 hours after final administration
# Procedure: LLC cells were subcutaneously inoculated into C57BL/6 […] mice aged 8 weeks (females, SLC, Inc.) in the same manner as in Example 1. S1P (Avanti Polar Lipids, Inc.) was dissolved in PBS at 10 mM and the solution was stored at -30° C. as a stock solution. Before use, the stock solution was thawed and homogenized with an ultrasonic cleaner (SND Co., Ltd.) for 1 minute. The solution was diluted in PBS before administration so that the concentration of S1P was 0.3 mg/kg in 100 μL PBS. The prepared solution was used for S1P administration. Mice on day 9 post-inoculation of LLC cells (individuals with a tumor volume of 60 to 80 mm^3) were subjected to the experiment. The mice were divided into two groups: control group and S1P group (n=3). From the day of grouping, S1P was administered to the tail vein of the S1P group mice at a dose of 0.3 mg/kg in 100 μL PBS once daily for consecutive three days. To the control group mice, PBS (100 μL) was administered instead of S1P. At 24 hours after the final administration, the tumors were harvested from the mice, and the specimens of tumor blood vessels were prepared in the same manner as in Example 1. The specimens were observed and photographed under a confocal laser microscope (Leica).
# [2] = tested on: Mouse pancreatic vascular endothelial cell line (MS-1); assay: In vitro barrier function of endothelial cell-cell junctions (ECIS-Zθ, resistance between cells Rb); assay type: cell-based; details: MS-1 cells, 10 μM
# Procedure: In vitro barrier function of the cell-cell junctions of vascular endothelial cells in the presence of LPA or VPC 31144 (S) was analyzed using a real-time cell ECIS-Zθ analyzer (Applied Biophysics).
# LPA and VPC 31144 (S) were each dissolved in 50% ethanol as a 10 mM LPA stock solution and stored at −30° C. Before use, the LPA stock solution was thawed and homogenized with an ultrasonic cleaner (SND Co., Ltd.) for 1 minute. The solution was diluted in a serum-free culture medium supplemented with 0.1% BSA to a concentration of 10 μM.
# Mouse pancreatic vascular endothelial cell line (MS-1) was used. The cells were suspended in DMEM (Sigma) containing 5% FBS. The cell suspension was seeded on a well plate with electrodes (8W10E+, 8 wells) specially designed for the analyzer at a density of 1×10^5 cells in 400 μL per well, and the cells were cultured overnight in an incubator to confluence. The medium was replaced by serum-free culture medium containing 0.1% BSA, and the cells were incubated for 4 hours. The medium was replaced by culture medium (serum-free culture medium containing 0.1% BSA) containing 10 μM LPA or VPC 31144 (S). The medium of the control cultures was replaced by serum-free culture medium containing 0.1% BSA. After replacement of the medium, resistance between cells (Rb) was measured in real time to evaluate the barrier function.
SMILES,formation of a network of tumor blood vessels [1],"speed of barrier function increase ([2]; immediately after addition, compared with LPA)","electric resistance (Rb), barrier function in endothelial cells ([2]; serum-free medium with 0.1% BSA, vs control)"
"CCCCCCCCCCCCC/C=C/[C@@H](O)[C@@H](N)COP(=O)(O)O [S1P, sphingosine-1-phosphate]",the formation of a network of tumor blood vessels was induced,,
"CCCCCCCC/C=C\CCCCCCCC(=O)N[C@@H](CO)COP(=O)(O)O [VPC 31144, N-{(1S)-2-hydroxy-1-[(phosphonooxy)methyl]ethyl}(9Z) octadec-9-enamide]",,"more rapidly increased the barrier function immediately after the administration, as compared with addition of LPA",also increased the barrier function in endothelial cells
